Assay [1] in a line: Lipid II binding, spot-on-lawn assays on S. aureus ATCC 33591. To be noted: lipid II (300 μM, 2 μL) at the edge of the antibiotic halo, overnight 37 °C, duplicates. Also noted: species or system Staphylococcus aureus. An excerpt:
6 Spot-on-lawn assays to evaluate binding of Lipid II with analogue 12 on S. aureus ATCC 33591. (A) Analogue 12 was premixed with increasing ratios of lipid II (0.5 to 4 equiv) and spotted onto a seeded lawn of S. aureus 33591. Lipid II and analogue 12 were also spotted independently. The position of the analogue 12–lipid II mixture is marked in red. (B) Daptomycin was used as a negative control. Asterisks denote the positions of analogue 12 (black), lipid II (blue), and daptomycin (green) additions.
Analogue 12 was premixed with increasing ratios of lipid II (0.5 to 4 equiv) for 10 min prior to spotting onto agar plates seeded with a lawn of S. aureus ATCC 33591 and incubated overnight.
XII. Lipid II binding determination of analogue 12
Previously reported methods were used to determine the lipid II binding of analogue 126,7. The lipid II used in this study was prepared by chemical synthesis and its preparation and purification has been […]
A: An overnight culture of S. aureus ATCC 33591 was added to LB agar (45 °C) at a final concentration of 0.1% (vol/vol) and pour-plated into 90 mm petri dishes. Binding of 12 to purified lipid II was assessed using a spot-on-lawn assay. Premixed solutions (5 µL) containing analogue 12 (8 µg) with varying concentration of lipid II were spotted onto the agar, alongside individual controls of 12 and lipid II.
After drying, plates were incubated overnight at 37 °C. This assay was performed in duplicates.
B: To assess the interaction between analogue 12 and lipid II, a culture of S. aureus ATCC 33591 was grown overnight in LB broth and inoculated into LB agar at a final concentration of 1% (v/v) at 45°C.
This mixture was evenly distributed into 90mm petri dishes. Antibiotic inhibition haloes were previously determined by spotting analogue 12 and daptomycin (5 μL,8 µg/mL) onto agar plates and measuring the diameter of the halo after overnight incubation at 37 °C . The binding affinity of analogue 12 and lipid II was later examined by applying purified lipid II (300 μM, 2 μL) to the edge of the antibiotic halo. Analogue 12 and Daptomycin were applied to the inoculated agar plate at a spaced distance, once the antimicrobial solution drops had dried, lipid II was spotted on the edge of the inhibition halo. The plates were then incubated overnight at 37 °C. […]

Assay [2] concerns Multidrug-Resistant (MDR) S. aureus. Kind of assay: microbe, parasite or virus in culture. To be noted: 24 h; for MIC: Staphylococcus aureus. Here is the method:
(§1) We further evaluated analogue 12 against multidrug-resistant (MDR) strains of S. aureus (acquired from the NARSA collection) and MDR E. faecium (acquired from International Health Management Associates, IHMA, Europe Sarl), comparing its activity to various classes of clinically used antibiotics (Table ).
(§2) MICs were performed as previously reported 4. For MIC testing all peptides were dissolved in DMSO.
(§3) Bacterial cultures were grown overnight on Mueller-Hinton Agar (MHA) plates and adjusted to a final inoculum of 10^5 – 10^6 CFU/mL. 100 µl of ino culum in Meuller -Hinton broth (MHB) was mixed with equal volume of peptides (dissolved in MHB) at 2x their concentration in a 96 well plate . For daptomycin MIC determination, the same protocol was followed with the addition of 50 mg/L calcium chloride to the medium. MIC values were determined in the media contain ing polysorbate 80 (0.002%, v/v) to prevent non -specific adsorption of the peptides to plastic surfaces. The final peptides concentrations ranged from 0.0625 – 32 µg/mL. The 96 well plates were then incubated at 37 °C for 24 h. All the experiments were performed in two independent duplicates and the MIC was determined as the lowest concentration in which no visible growth was observed.
(§4) Antibiotics MIC break points ( µg/mL)
(§5) Table. S4: Susceptibility cut-off values (MIC breakpoints) for various clinical antibiotics. […]

Assay [3] concerns Multidrug-Resistant (MDR) E. faecium. Kind of assay: microbe, parasite or virus in culture. To be noted: 24 h; for MIC: Enterococcus faecium. Here is the method:
as §1, §2, §3, §4, §5

The subject of assay [4] is MRSA ATCC 33591. Briefly: microbe, parasite or virus in culture. It is filed as cell-based, Staphylococcus aureus. Here is the method:
as §2
as §3, with “observed. […]” for “observed.”

For assay [5], the system named is MRSA ATCC 33591. Briefly: Time-kill kinetics. It is filed as cell-based, Staphylococcus aureus. The following applies: 5 μg/mL, MHB with 0.002% polysorbate 80, 37 °C, two independent experiments in duplicate. Here is the method: Early-stage time-kill kinetics for analogue 12 against MRSA ATCC 33591 were performed using vancomycin as a control, following the protocol described in Section VIII, Supporting Information.
3 Time-kill kinetics of Novltex analogue 12 and clinical antibiotic (vancomycin) against MRSA 33591. […] Results are the mean ± SD of two independent experiments performed in duplicate.
as §2, §3, §4
Table. […]

In brackets after ≈: the same amount, converted by molar mass. Read-outs that look alike come from different tables or passages of the source. Positions of bridges follow the written chain, without caps; N, C: chain ends. Non-standard residues stand in square brackets, D forms with d. Residues, ends and D or L forms follow the SMILES beside them. d(aIle) = CC[C@H](C)[C@@H](N)C(=O)O

Consider `CCCCCCCCCC(=O)N[C@@H](Cc1c[nH]c2ccccc12)C(=O)N[C@H](CC(N)=O)C(=O)N[C@@H](CC(=O)O)C(=O)N[C@@H]1C(=O)NCC(=O)N[C@@H](CCCN)C(=O)N[C@@H](CC(=O)O)C(=O)N[C@H](C)C(=O)N[C@@H](CC(=O)O)C(=O)NCC(=O)N[C@H](CO)C(=O)N[C@@H]([C@H](C)CC(=O)O)C(=O)N[C@@H](CC(=O)c2ccccc2N)C(=O)O[C@@H]1C` [Daptomycin], for which the “halo distortion on addition of lipid II” value in assay [1] is on record as “maintained a distinct circular inhibition zone”. Moreover, the “MIC, Staphylococcus aureus NR 45914” value in assay [2] (MDR strain NR 45914, MHB, 0.002% polysorbate 80, 37 °C, daptomycin with 50 mg/L calcium chloride) turned out to be 2 µg/mL (≈ 1.23 µM). Besides, the “MIC, Staphylococcus aureus NR 45926” value in assay [2] (MDR strain NR 45926, MHB, 0.002% polysorbate 80, 37 °C, daptomycin with 50 mg/L calcium chloride) was 4 µg/mL (≈ 2.47 µM). In addition, the “MIC, Staphylococcus aureus NR 45930” value in assay [2] (MDR strain NR 45930, MHB, 0.002% polysorbate 80, 37 °C, daptomycin with 50 mg/L calcium chloride) turned out to be 2 µg/mL (≈ 1.23 µM). In assay [2] (MDR strain NR 46062, MHB, 0.002% polysorbate 80, 37 °C, daptomycin with 50 mg/L calcium chloride), the “MIC, Staphylococcus aureus NR 46062” value was 2 µg/mL (≈ 1.23 µM). For the same compound, the “MIC, Enterococcus faecium 1563254” value in assay [3] (MDR clinical isolate 1563254, MHB, 0.002% polysorbate 80, 37 °C, daptomycin with 50 mg/L calcium chloride) is greater than 32 µg/mL. The “MIC, Enterococcus faecium 1581582” value in assay [3] (MDR clinical isolate 1581582, MHB, 0.002% polysorbate 80, 37 °C, daptomycin with 50 mg/L calcium chloride) was greater than 32 µg/mL. Further, in assay [3] (MDR clinical isolate 1766686, MHB, 0.002% polysorbate 80, 37 °C, daptomycin with 50 mg/L calcium chloride), the “MIC, Enterococcus faecium 1766686” value is greater than 32 µg/mL.

Consider `CN[C@H](CC(C)C)C(=O)N[C@H]1C(=O)N[C@@H](CC(N)=O)C(=O)N[C@H]2C(=O)N[C@H]3C(=O)N[C@H](C(=O)N[C@H](C(=O)O)c4cc(O)cc(O)c4-c4cc3ccc4O)[C@H](O)c3ccc(c(Cl)c3)Oc3cc2cc(c3O[C@@H]2O[C@H](CO)[C@@H](O)[C@H](O)[C@H]2O[C@H]2C[C@](C)(N)[C@H](O)[C@H](C)O2)Oc2ccc(cc2Cl)[C@H]1O` [Vancomycin], for which the MIC in the assay on MRSA ATCC 33591 [4] (Staphylococcus aureus, 24 h, read-out: MIC against MRSA ATCC 33591) was 0.5 to 1 µg/mL (≈ 0.345 to 0.69 µM); in assay [2] (read-out: MIC, Staphylococcus aureus NR 45914), 1 µg/mL (≈ 0.69 µM); in assay [2] (read-out: MIC, Staphylococcus aureus NR 45926), 0.5 µg/mL (≈ 0.345 µM); in assay [2] (read-out: MIC, Staphylococcus aureus NR 45930), 1 µg/mL (≈ 0.69 µM); in assay [2] (read-out: MIC, Staphylococcus aureus NR 46062), 2 µg/mL (≈ 1.38 µM); in assay [3] (read-out: MIC, Enterococcus faecium 1563254) it was greater than 32 µg/mL. For the same compound, the MIC was greater than 32 µg/mL in assay [3] (read-out: MIC, Enterococcus faecium 1581582) and greater than 32 µg/mL in assay [3] (read-out: MIC, Enterococcus faecium 1766686). Besides, the “time to similar bacterial killing” value with MRSA ATCC 33591 [5] came to 24 h.

Turning to `CC[C@H](C)[C@@H](NC(=O)[C@@H](N)Cc1ccccc1)C(=O)N[C@H](CCCCN)C(=O)N[C@@H](CO)C(=O)N[C@H]1C(=O)N[C@@H](C)C(=O)N[C@@H](CC(C)C)C(=O)N[C@@H](CC(C)C)C(=O)O[C@H]1C` [analogue 16, Leu2 D-allo-Ile–Novltex] (H-F[d(aIle)][dK]S[dT]ALL; ester 5-C), the “fold decrease in antibacterial activity (MIC) compared to analogue 12” value in the assay on MRSA ATCC 33591 [4] (MRSA ATCC 33591) is on record as 64 fold. In the assay with MRSA ATCC 33591 [4] (Table 2, MHB with 0.002% polysorbate 80, 37 °C, 24 h, two independent duplicates), the “MIC against MRSA ATCC 33591” value is 16 µg/mL (≈ 18.3 µM).

The values above are taken from article PMC12481569, “Novltex: A New Class of Antibiotics with Potent Activity against Multidrug-Resistant Bacterial Pathogens–Design, Synthesis, and Biological Evaluation” (Journal of Medicinal Chemistry, 2025).
